The melting point is the temperature, or range, at which the solid turns liquid.

The values below come from US6936622B2, “6-phenylbenzonaphthyridines” (Altana Pharma AG, priority 2001, dated 2005).

Data set [1] addresses T1, PDE3 (cGMP-inhibited) (Homo sapiens, UniProt Q14432).
T1 construct: investigated in homogenates of human platelets; from tissue; host or cells: homogenates of human platelets
The data set is described as follows: Inhibition of PDE isoenzymes: PDE3. To be noted: homogenates of human platelets, cAMP or cGMP as substrate; read-out: PDE3 [-log IC50, mol/l] (converted). It is filed as biochemical. The method, then:
(§1) 1. Inhibition of PDE Isoenzymes
(§2) The PDE activity was determined according to Thompson et al. (Adv Cycl Nucl Res 10: 69-92, 1979) with some modifications (Bauer and Schwabe, Naunyn-Schmiedeberg's Arch Pharmacol 311: 193198, 1980). The test samples contained 20 mM Tris (pH 7.4), 5 mM MgCl2, 0.5 μM cAMP or cGMP, [^3H]cAMP or [^3H]cGMP (about 30 000 cpm/sample), the PDE isoenzyme-specific additives described in greater detail below, the indicated concentrations of inhibitor and an aliquot of the enzyme solution in a total sample volume of 200 μl. Dilution series of the compounds according to the invention were prepared in DMSO and further diluted in the samples [1:100 (v/v)], to give the desired end concentration of the inhibitors at a DMSO concentration of 1% (v/v), which for its part has only a minute effect on PDE activity.
(§3) After preincubation at 37° C. for 5 minutes, the reaction was started by addition of the substrate (cAMP or cGMP). The samples were incubated at 37° C. for a further 15 min. The reaction was terminated by addition of 50 μl 0.2 N HCl. After cooling on ice for 10 minutes and addition of 25 μg 5′-nucleotidase (snake venom from Crotalus atrox), the mixture was again incubated at 37° C. for 10 min and the samples were then applied to QAE Sephadex A-25 columns (sample volume 1 ml). The columns were eluted with 2 ml of 30 mM ammonium formate (pH 6.0). The radioactivity of the eluate was measured and corrected by the corresponding blank values (measured in the presence of denatured protein); the blank values were less than 5% of the total radioactivity. In no case did the proportion of hydrolyzed nucleotide exceed 30% of the original substrate concentration.
PDE3 (cGMP-inhibited) was investigated in homogenates of human platelets (see Schudt et al., Biochem Pharmacol 1991: 42, 153-162) using cAMP or cGMP as substrate.
(§4) The IC50 values were determined from the concentration-inhibition curves by nonlinear regression.

Data set [2] deals with PDE4 (cAMP-specific). In words: Inhibition of PDE isoenzymes: PDE4. It is filed as biochemical. To be noted: cytosol of human polymorphonuclear leukocytes (PMNL), cAMP as substrate, motapizone 1 μM. The method, then: as §1, §2, §3
PDE4 (cAMP-specific) was investigated in the cytosol of human polymorphonuclear leukocytes (PMNL) [isolated from leukocyte concentrates, see Schudt et al., Arch Pharmacol 1991: 344, 682-690] using cAMP as substrate. The PDE3 inhibitor motapizone (1 μM) was used to suppress the PDE3 activity emanating from contaminated platelets.
as §4

Molecules are shown by their SMILES. Where a name gives a salt, the structure may show the parent alone.

T1 sequence (Q14432 whole entry): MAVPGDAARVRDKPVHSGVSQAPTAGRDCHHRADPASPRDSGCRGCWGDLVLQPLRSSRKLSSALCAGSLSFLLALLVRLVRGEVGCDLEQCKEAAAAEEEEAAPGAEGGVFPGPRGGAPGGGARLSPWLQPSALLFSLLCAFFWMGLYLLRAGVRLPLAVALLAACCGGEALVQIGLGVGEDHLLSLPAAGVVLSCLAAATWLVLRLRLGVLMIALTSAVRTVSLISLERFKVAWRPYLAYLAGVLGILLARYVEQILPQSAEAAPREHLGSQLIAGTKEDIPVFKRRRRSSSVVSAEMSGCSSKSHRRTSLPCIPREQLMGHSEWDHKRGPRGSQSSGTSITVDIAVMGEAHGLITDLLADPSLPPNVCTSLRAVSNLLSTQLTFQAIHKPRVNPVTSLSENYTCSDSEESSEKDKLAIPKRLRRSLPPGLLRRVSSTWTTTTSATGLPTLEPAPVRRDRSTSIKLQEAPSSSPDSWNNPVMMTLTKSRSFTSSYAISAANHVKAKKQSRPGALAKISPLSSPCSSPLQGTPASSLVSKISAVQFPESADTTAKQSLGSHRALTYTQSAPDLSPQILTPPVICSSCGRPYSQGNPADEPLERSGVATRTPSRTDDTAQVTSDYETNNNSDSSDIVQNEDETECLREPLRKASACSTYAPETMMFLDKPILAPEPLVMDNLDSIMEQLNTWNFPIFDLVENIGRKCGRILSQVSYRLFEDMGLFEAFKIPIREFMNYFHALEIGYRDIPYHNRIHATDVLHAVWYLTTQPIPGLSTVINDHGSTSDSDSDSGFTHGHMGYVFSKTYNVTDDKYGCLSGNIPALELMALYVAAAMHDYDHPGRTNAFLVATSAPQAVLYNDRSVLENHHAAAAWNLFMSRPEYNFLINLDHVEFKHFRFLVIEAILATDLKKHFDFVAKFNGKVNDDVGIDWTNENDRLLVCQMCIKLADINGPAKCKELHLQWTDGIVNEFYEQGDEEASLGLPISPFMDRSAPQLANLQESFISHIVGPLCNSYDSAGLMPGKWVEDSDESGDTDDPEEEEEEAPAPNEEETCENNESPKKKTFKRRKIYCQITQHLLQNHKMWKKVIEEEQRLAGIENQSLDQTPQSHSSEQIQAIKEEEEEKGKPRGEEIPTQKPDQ

With `COc1cc2c(cc1OC)[C@@H]1CN(C)CC[C@@H]1N=C2c1ccc(C(=O)N=C(N(C)C)N(C)C)cc1.Cl`, the melting point was in the range of 161 to 166 °C. Still for that read-out and setting: next, `CCOc1cc2c(cc1OC)C(c1ccc(C(=O)NC(=N)N3CCOCC3)cc1)=NC1CCN(C)CC21` (stereo not drawn) (as salt: hydrochloride) [Compound 1, 4-[(+)-cis-9-Ethoxy-8-methoxy-2-methyl-1,2,3,4,4a,10b-hexahydro[c][1,6]naphthyridin-yl)-N-(1-imino-1-morpholin-4-ylmethyl)]benzamide dihydrochloride]: 208 to 218 °C.

For `CCOc1cc2c(cc1OC)C(c1ccc(C(=O)NC(=N)N)cc1)=N[C@H]1CCN(C)C[C@@H]21` (relative stereo) [Compound 7, N-{1-[4-((−)-cis-9-Ethoxy-8-methoxy-2-methyl-1,2,3,4,4a,10b-hexahydro-benzo[c]-[1,6]naphthyridin-6-yl)-phenyl]-methanoyl}guanidine], the IC50 in data set [1] was 195 nM. In addition, in data set [2], the “PDE4 [-log IC50, mol/l]” value was found to be 8.83. `CCOc1cc2c(cc1OC)C(c1ccc(C(=O)NC(=N)NC)cc1)=N[C@H]1CCN(C)C[C@@H]21` (relative stereo) [Compound 14, N-{1-[4-((−)-cis-9-Ethoxy-8-methoxy-2-methyl-1,2,3,4,4a,10b-hexahydro-benzo[c][1,6]naphthyridin-6-yl)-phenyl]-methanoyl}-N′-methyl-guanidine]: the IC50 in data set [1] is 309 nM. Moreover, the “PDE4 [-log IC50, mol/l]” value in data set [2] was 8.82. The matching figures for `CCOc1cc2c(cc1OC)C(c1ccc(C(=O)NC(=N)NC(C)C)cc1)=N[C@H]1CCN(C)C[C@@H]21` (relative stereo) [Compound 15, N-{1-[4-((−)-cis-9-Ethoxy-8-methoxy-2-methyl-1,2,3,4,4a,10b-hexahydro-benzo[c][1,6]naphthyridin-6-yl)-phenyl]-methanoyl}-N′-isopropyl-guanidine]: 155 nM and 9.11. The corresponding values for `CCCNC(=N)NC(=O)c1ccc(C2=N[C@H]3CCN(C)C[C@H]3c3cc(OCC)c(OC)cc32)cc1` (relative stereo) [Compound 16, N-{1-[4-((−)-cis-9-Ethoxy-8-methoxy-2-methyl-1,2,3,4,4a,10b-hexahydro-benzo[c][1,6]naphthyridin-6-yl)-phenyl]-methanoyl}-N′-propyl-guanidine] are 166 nM and 9.65. Take `CCOc1cc2c(cc1OC)C(c1ccc(C(=O)NC(=N)NCC(C)C)cc1)=N[C@H]1CCN(C)C[C@@H]21` (relative stereo) [Compound 17, N-{1-[4-((−)-cis-9-Ethoxy8-methoxy-2-methyl-1,2,3,4,4a,10b-hexahydro-benzo[c][1,6]naphthyridin-6-yl)-phenyl]-methanoyl}-N′-isobutyl-guanidine]: in data set [1], the IC50 is 123 nM. Further, the “PDE4 [-log IC50, mol/l]” value in data set [2] came out at 9.34. The matching figures for `CCNC(=N)NC(=O)c1ccc(C2=N[C@H]3CCN(C)C[C@H]3c3cc(OCC)c(OC)cc32)cc1` (relative stereo) [Compound 18, N-{1-[4-((−)-cis-9-Ethoxy-8-methoxy-2-methyl-1,2,3,4,4a,10b-hexahydro-benzo[c][1,6]naphthyridin-6-yl)-phenyl]-methanoyl}-N′-ethyl-guanidine]: 245 nM and 8.76.

For the compound `CCOc1cc2c(cc1OC)C(c1ccc(C(=O)NC(=N)NC3CCCCC3)cc1)=N[C@H]1CCN(C)C[C@@H]21` (relative stereo) [Compound 19, N-Cyclohexyl-N′-{1-[4-((−)-cis-9-ethoxy-8-methoxy-2-methyl-1,2,3,4,4a,10b-hexahydro-benzo [c][1,6]naphthyridin-6-yl)-phenyl]-methanoyl}-guanidine], in data set [1], the IC50 is 132 nM. In addition, the “PDE4 [-log IC50, mol/l]” value in data set [2] was determined as 9.50. The corresponding values for `CCOc1cc2c(cc1OC)C(c1ccc(C(=O)NC(=N)NCC3CCCCC3)cc1)=N[C@H]1CCN(C)C[C@@H]21` (relative stereo) [Compound 20, N-Cyclohexylmethyl-N′-{1-[4-((−)-cis-9-ethoxy-8-methoxy-2-methyl-1,2,3,4,4a,10b-hexahydro-benzo[c][1,6]naphthyridin-6-yl)-phenyl]-methanoyl}-guanidine] are 97.7 nM and 9.65. The matching figures for `CCCCNC(=N)NC(=O)c1ccc(C2=N[C@H]3CCN(C)C[C@H]3c3cc(OCC)c(OC)cc32)cc1` (relative stereo) [Compound 21, N-Butyl-N′-{1-[4-((−)-cis-9-ethoxy-8-methoxy-2-methyl-1,2,3,4,4a,10b-hexahydro-benzo[c][1,6]naphthyridin-6-yl)-phenyl]-methanoyl}-guanidine]: 129 nM and 9.49.

Regarding `CCOc1cc2c(cc1OC)C(c1ccc(C(=O)N=C(N(C)C)N(C)C)cc1)=NC1CCN(C)CC21` (single isomer, unassigned) [Compound 5, N″{1-[4-((−)-cis-9-Ethoxy-8-methoxy-2-methyl-1,2,3,4,4a,10b-hexahydro[c][1.6]naphthyridin-6-yl)phenyl]methanoyl}-N,N,N′,N′-tetramethylguanidine hydrochloride], the IC50 in data set [1] is 129 nM. Further, the “PDE4 [-log IC50, mol/l]” value in data set [2] was determined as 9.01. The corresponding values for `CCOc1cc2c(cc1OC)C(c1ccc(C(=O)NC(=N)N3CCOCC3)cc1)=NC1CCN(C)CC21` (stereo not drawn) [Compound 1, 4-[(+)-cis-9-Ethoxy-8-methoxy-2-methyl-1,2,3,4,4a,10b-hexahydro[c][1,6]naphthyridin-yl)-N-(1-imino-1-morpholin-4-ylmethyl)]benzamide dihydrochloride] are 135 nM and 9.22. The matching figures for `CCOc1cc2c(cc1OC)C(c1ccc(C(=O)NC(=N)N(CC)CC)cc1)=NC1CCN(C)CC21` (stereo not drawn) [Compound 2, N′-{1-[4-((+)-cis-9-Ethoxy-8-methoxy-2-methyl-1,2,3,4,4a,10b-hexahydro[c][1,6]naphthyridin-6-yl)phenyl]methanoyl}-N,N-diethylguanidine dihydrochloride]: 42.7 nM and 9.77. Regarding `CCOc1cc2c(cc1OC)C(c1ccc(C(=O)NC(=N)N(C)C)cc1)=NC1CCN(C)CC21` (stereo not drawn) [Compound 3, N′{1-[4-((+)-cis-9-Ethoxy-8-methoxy-2-methyl-1,2,3,4,4a,10b-hexahydro[c][1,6[-naphthyridin-6-yl)phenyl]methanoyl}-N,N-dimethylguanidinedihydrochloride], the IC50 in data set [1] was 87.1 nM. The “PDE4 [-log IC50, mol/l]” value in data set [2] came to 9.39.

Take `CCOc1cc2c(cc1OC)C(c1ccc(C(=O)NC(=N)N(C)CCO)cc1)=NC1CCN(C)CC21` (stereo not drawn) [Compound 4, N′-{1-[4-((+)-cis-9-Ethoxy-8-methoxy-2-methyl-1,2,3,4,4a,10b-hexahydro[c][1,6]naphthyridin-6-yl)phenyl]methanoyl}-N-(2-hydroxyethyl)-N-methylguanidine dihydrochloride]: the IC50 in data set [1] is 1150 nM. Also, the “PDE4 [-log IC50, mol/l]” value in data set [2] was found to be 8.34. On to `CCOc1cc2c(cc1OC)C(c1ccc(C(=O)N=C(N)N3CCN(C)CC3)cc1)=NC1CCN(C)CC21` (stereo not drawn) [Compound 6, N-[1-Amino-1-(4-methylpiperazin-1-yl)methylene]-4-((+)-cis-9-ethoxy-8-methoxy-2-methyl-1,2,3,4,4a,10b-hexahydro[c][1,6]naphthyridin-6-yl)benzamide dihydrochloride], for which the IC50 in data set [1] was 363 nM. For the same compound, in data set [2], the “PDE4 [-log IC50, mol/l]” value amounted to 9.13.
